Key:
[1] = system: SMN2 full length and Δ7 mRNA; assay: Endogenous SMN2 mRNA RT-qPCR splicing assay in cultured cells (GM03813 SMA patient cells); assay type: cell-based, human; conditions: Type 1 SMA patient fibroblasts GM03813, increasing concentrations, 24 hr, RT-qPCR (FIG. 4)
Protocol: The reverse transcription-quantitative PCR-based (RT-qPCR) assay is used to quantify the levels of the SMN2 full length and Δ7 mRNA in primary cells and cell lines containing the SMN2 gene treated with a test compound.
GM03813 SMA patient cells (5,000 cells/well) are seeded in 200 μL, of cell culture medium (DMEM plus 10% FBS) in 96-well flat-bottom plates and the plate is immediately swirled to ensure proper dispersal of cells, forming an even monolayer of cells. Cells are allowed to attach for at least 4-6 hrs. Test compounds are serially diluted 3.16-fold in 100% DMSO to generate a 7-point concentration curve. A solution of test compound (1 μL, 200× in DMSO) is added to each test well and 1 μL, DMSO is added to each control well. The plate is incubated for 24 hrs in a cell culture incubator (37° C., 5% CO2, 100% relative humidity). The cells are then lysed in Cells-To-Ct lysis buffer and the lysate is stored at 80° C.
SMN2-specific spliced products and GAPDH mRNA are identified using the following primers and probes in Table 5. Primer SMN FL Forward B (SEQ ID NO. 7) hybridizes to a nucleotide sequence in exon 7 (nucleotide 32 to nucleotide 54) and exon 8 (nucleotide 1 to nucleotide 4), primer SMN Δ7 Forward B (SEQ ID NO. 8) hybridizes to a nucleotide sequence in exon 6 (nucleotide 87 to nucleotide 111) and exon 8 (nucleotide 1 to nucleotide 3), primer SMN Reverse B (SEQ ID NO. 9) hybridizes to a nucleotide sequence in exon 8 (nucleotide 39 to nucleotide 62), probe SMN Probe B (SEQ ID NO. 10) hybridizes to a nucleotide sequence in exon 8 (nucleotide 7 to nucleotide 36). These primers and probes hybridize to nucleotide sequences common to human SMN1 and SMN2 mRNA. Since the SMA patient cells used in Example 3 contain only the SMN2 gene, RT-qPCR can quantify only SMN2 full-length and Δ7 mRNA.
The SMN forward and reverse primers are used at final concentrations of 0.4 μM. The SMN probe is used at a final concentration of 0.15 μM. GAPDH primers are used at final concentrations of 0.1 μM and the probe at 0.075 μM. […]
The increase of SMN2 FL and decrease in SMN2 Δ7 mRNA relative to those in cells treated with vehicle control are determined from real-time PCR data using a modified ΔΔCt method (as described in Livak and Schmittgen, Methods, 2001, 25:402-8). The amplification efficiency (E) is calculated from the slope of the amplification curve for SMN2 FL, SMN2 Δ7, and GAPDH individually. The abundances of SMN2 FL, SMN2 Δ7, and GAPDH are then calculated as (1+E)^−Ct, where Ct is the threshold value for each amplicon. […]

Smn protein = Smn protein assay (HTRF) in cultured cells (SMA patient fibroblasts GM03813); assay type: cell-based, human; conditions: for Smn protein expression: SMA Type 1 patient fibroblast cells, 48 hour, SMN HTRF assay (FIG. 6); for EC1.5x for Smn protein expression: SMA patient fibroblast cells (GM03813), HTRF, 7-point concentration data, concentration producing 1.5 times Smn protein vs DMSO vehicle control; for EC1.5x for Smn protein expression / maximum fold (Fold) increase of Smn protein: 48 hours; for maximum fold (Fold) increase of Smn protein: SMA patient fibroblast cells, 7-point concentration curve, relative to vehicle control
How it was run: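 SMA patient fibroblasts (GM03813) were treated 48 h at 37° C with a 7-point, 3.16-fold compound series in triplicate, then lysed in RIPA. Smn was read by HTRF (anti-SMN d2/kryptate, 665/620 nm ratio). ΔF versus blank was divided by vehicle ΔF to give fold Smn increase.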

Compound	SMN2 FL mRNA relative to vehicle [1]	SMN2 Δ7 mRNA relative to vehicle [1]	Smn protein expression (Smn protein)	EC1.5x for Smn protein expression (Smn protein)	maximum fold (Fold) increase of Smn protein (Smn protein)
CN1CCN(c2ccc3cc(-c4nc5c(Cl)cccc5s4)c(=O)oc3n2)CC1 [Cpd 5, 3-(4-chloro-1,3-benzothiazol-2-yl)-7-(4-methylpiperazin-1-yl)-2H-pyrano[2,3-b]pyridin-2-one]	progressively more SMN2 FL mRNA	less SMN2 Δ7 mRNA	dose dependent increase in Smn protein expression	*** (an EC1.5× between >0.3 μM and ≦1 μM is indicated by three stars (***))	**** (a fold increase between >1.5 and ≦1.65 is indicated by four stars (****))
Cc1ccc2nc(-c3cc4ccc(N5CCN(C)CC5)nc4oc3=O)cn2c1 [Cpd 27, 3-(6-methylimidazo[1,2-a]pyridin-2-yl)-7-(4-methylpiperazin-1-yl)-2H-pyrano[2,3-b]pyridin-2-one]	progressively more SMN2 FL mRNA	less SMN2 Δ7 mRNA	dose dependent increase in Smn protein expression	** (an EC1.5× between >1 and ≦3 μM is indicated by two stars (**))	**** (a fold increase between >1.5 and ≦1.65 is indicated by four stars (****))

Reference: patent US9371336B2, “Compounds for treating spinal muscular atrophy” (PTC Therapeutics Inc., priority 2012, dated 2016)
